Laboratory results taken from patent publication US4582839A, “2,4-thiazolidinediones” (Takeda Chemical Industries, Ltd., priority 1985, dated 1986).
Like-named read-outs stand apart in the source and are kept apart here.

Columns and labels:
[1] = Acute oral toxicity (LD50) in rat; conditions: in vivo, administered orally
Experimental: With reference to the method of administration, they are normally usable orally for example in the form of tablets, capsules, powders, granules, etc., but can also be administered parenterally in the form of injectable solutions, suppositories, pellets, etc., as the case may be. In the case of their being employed as a therapeutic agent for diabetes, they can be normally administered orally in daily doses of 0.05 mg to 10 mg/kg or parenterally in daily doses of 0.01 mg to 10 mg/kg, per adult human, and in the case of their being utilized as a therapeutic agent for hyperlipemia, they can be normally given orally in daily doses of 0.05 mg to 10 mg/kg or parenterally in daily doses of 0.01 mg to 10 mg/kg, per adult human, whereby it is desirable to administer such quantities once daily or intermittently twice to four times weekly.

KKAy mice = assay: Blood sugar- and lipid-lowering activity in mice (test compound 0.005% in diet, 4 days); type: in vivo; conditions: Mus musculus, feed or water, 96 h, 0.005% in powder diet, male KKAy mice
Experimental: Blood sugar- and lipid-lowering activity in mice.
0.005% of a test compound was mixed with a powder diet (CE-2, produced by CLEA JAPAN), and KKAy mice (male, 8 to 10 weeks of age, 5 mice/group) were placed on the diet for 4 days, and allowed free access to water throughout the experiment. Blood samples were taken from the orbital veins and assayed for blood sugar by the glucose oxidase method and for plasma triglyceride by the enzyme method in which the produced glycerol was determined by means of Cleantech TG-S Kit (Yatron), respectively. The respective values are expressed in terms of rate of lowering (%) from the values of control group not receiving the test compound.

[2] = enzyme method (Cleantech TG-S Kit), read-out: Hypolipemic activity (rate of lowering of plasma triglyceride from control group)
[3] = glucose oxidase method, read-out: Hypoglycemic activity (rate of lowering of blood sugar from control group)

SMILES: Cc1cccnc1C(CO)COc1ccc(CC2SC(=O)NC2=O)cc1 (stereo not shown) [Example 2, 5-{4-[3-hydroxy-2-(3-methyl-2-pyridyl)propoxy]-benzyl}-2,4-thiazolidinedione]
- LD50 [1]: ≥ 5000 mg/kg
- inhibition in vivo at 0.005 %, 0.005 % in diet (KKAy mice; [2]): 11%
- inhibition in vivo at 0.005 %, 0.005 % in diet (KKAy mice; [3]): 22%

SMILES: CC(=O)OC(COc1ccc(CC2SC(=O)NC2=O)cc1)c1cccc(C)n1 (stereo not shown) [Example 5, 5-{4-[2-acetoxy-2-(6-methyl-2-pyridyl)ethoxy]benzyl}-2,4-thiazolidinedione]
- LD50 [1]: ≥ 5000 mg/kg

SMILES: Cc1ccc(C(O)COc2ccc(CC3SC(=O)NC3=O)cc2)nc1 (stereo not shown) [Example 9, 5-{4-[2-Hydroxy-2-(5-methyl-2-pyridyl)ethoxy]benzyl}-2,4-thiazolidinedione]
- inhibition in vivo at 0.005 %, 0.005 % in diet (KKAy mice; [2]): 19%
- inhibition in vivo at 0.005 %, 0.005 % in diet (KKAy mice; [3]): 35%

SMILES: Cc1cccc(C(O)COc2ccc(CC3SC(=O)NC3=O)cc2)n1 (stereo not shown) [Example 1, 5-{4-[2-hydroxy-2-(6-methyl-2-pyridyl)ethoxy]benzyl}-2,4-thiazolidinedione]
- LD50 [1]: ≥ 5000 mg/kg
- inhibition in vivo at 0.005 %, 0.005 % in diet (KKAy mice; [2]): 47%
- inhibition in vivo at 0.005 %, 0.005 % in diet (KKAy mice; [3]): 45%

SMILES: Cc1cccnc1C(O)COc1ccc(CC2SC(=O)NC2=O)cc1 (stereo not shown) [Example 7, 5-{4-[2-Hydroxy-2-(3-methyl-2-pyridyl)ethoxy]benzyl}-2,4-thiazolidinedione]
- inhibition in vivo at 0.005 %, 0.005 % in diet (KKAy mice; [2]): 58%
- inhibition in vivo at 0.005 %, 0.005 % in diet (KKAy mice; [3]): 53%

SMILES: CCc1ccc(C(CO)COc2ccc(CC3SC(=O)NC3=O)cc2)nc1 (stereo not shown) [5-{4-[2-(5-ethyl-2-pyridyl)-3-hydroxypropoxy]benzyl}-2,4-thiazolidinedione]
- LD50 [1]: ≥ 5000 mg/kg

SMILES: O=C1NC(=O)C(Cc2ccc(OCC(O)c3ccccn3)cc2)S1 (stereo not shown) [Example 8, 5-{4-[2-Hydroxy-2-(2-pyridyl)ethoxy]benzyl}-2,4-thiazolidinedione]
- inhibition in vivo at 0.005 %, 0.005 % in diet (KKAy mice; [2]): 53%
- inhibition in vivo at 0.005 %, 0.005 % in diet (KKAy mice; [3]): 47%

SMILES: Cc1cc(C)nc(C(O)COc2ccc(CC3SC(=O)NC3=O)cc2)c1 (stereo not shown) [Example 10, 5-{4-[2-(4,6-dimethyl-2-pyridyl)-2-hydroxyethoxy]benzyl}-2,4-thiazolidinedione]
- inhibition in vivo at 0.005 %, 0.005 % in diet (KKAy mice; [2]): 47%
- inhibition in vivo at 0.005 %, 0.005 % in diet (KKAy mice; [3]): 40%

SMILES: CCc1ccc(C(CO)COc2ccc(CC3SC(=O)NC3=O)cc2)nc1 (stereo not shown) [Example 4, 5-{4-[2-(5-ethyl-2-pyridyl)-3-hydroxypropoxy]benzyl}-2,4-thiazolidinedione]
- inhibition in vivo at 0.005 %, 0.005 % in diet (KKAy mice; [2]): 38%
- inhibition in vivo at 0.005 %, 0.005 % in diet (KKAy mice; [3]): 45%

SMILES: CCc1ccc(C(O)COc2ccc(CC3SC(=O)NC3=O)cc2)nc1 (stereo not shown) [Example 3, 5-{4-[2-(5-ethyl-2-pyridyl)-2-hydroxyethoxy]benzyl}-2,4-thiazolidinedione]
- LD50 [1]: ≥ 5000 mg/kg
- inhibition in vivo at 0.005 %, 0.005 % in diet (KKAy mice; [2]): 35%
- inhibition in vivo at 0.005 %, 0.005 % in diet (KKAy mice; [3]): 32%

SMILES: CCc1ccc(C(COC(C)=O)COc2ccc(CC3SC(=O)NC3=O)cc2)nc1 (stereo not shown) [Example 6, 5-{4-[3-acetoxy-2-(5-ethyl-2-pyridyl)propoxy]benzyl}-2,4-thiazolidinedione]
- LD50 [1]: ≥ 5000 mg/kg
